The structures appear in SMILES notation. Where two headings read alike, the source gives them in different places.

For experiment [1], the system named is BT‐20 (breast carcinoma). Put plainly: Resazurin cell viability assay, BT‐20. Format: cell-based. The settings on record: Homo sapiens, BT-20. The procedure, abridged:
(§1)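 Cells in DMEM/10% FBS, 1 × 10^3 per well, adhered overnight, then treated with compounds (0–50 µM) for 72 h. Viability read as fluorescence (ex 530, em 590 nm) after 4 h with 44 µM resazurin. % growth inhibition at 50 µM and IC50 by nonlinear regression, triplicates.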
In general terms: Resazurin is reduced to fluorescent resorufin, in cell work by metabolically active cells.

Experiment [2] deals with HGC‐27 (gastric carcinoma). Put plainly: Resazurin cell viability assay, HGC‐27. As to conditions: Homo sapiens, HGC-27. Format: cell-based. An outline of the steps: as §1
The subject of experiment [3] is CAL‐27 (oral carcinoma). Put plainly: Resazurin cell viability assay, CAL‐27. The format is cell-based. The settings on record: Homo sapiens, CAL-27. The procedure, abridged:
as §1

Experiment [4] has as its system MKN‐45 (gastric carcinoma) cells. The settings on record: cited from earlier work.
Experiment [5] concerns stomach carcinoma cell line (NUGC3). Further details: method as in PMID 15293996, PMID 23237054. The settings on record: cited from earlier work.
The subject of experiment [6] is BT‐20 breast cancer cells. In words: Cell‐cycle assay by flow cytometry. As to conditions: 2.5 µM, 24 h. Format: cell-based. As to the method: BT‐20 cells were seeded in 10 cm plates (1.5 × 10⁶ cells/plate) and incubated at 37°C with 5% CO₂ for 24 h. Subsequently, the cells were treated with different compounds at a concentration of 2.5 µM for 24 h. After treatment, the cells were collected by centrifugation and fixed in cold 70% ethanol for 1 h at 4°C. The cells were then washed, collected by centrifugation, and treated with RNase A (100 μg/mL, Sigma‐Aldrich) for 30 min at 37°C, followed by staining with propidium iodide (50 μg/mL) for 15 min at 37°C. Finally, the percentages of cells in each phase of the cell cycle were determined using FACSCalibur flow cytometry (BD Biosciences—San Jose, CA, USA). Cell‐cycle distribution was analyzed using ModFit LT V3.3 software.
A general note: In flow cytometry, cells or beads pass a laser one at a time.

For experiment [7], the system named is GNP15. In words: Resazurin cellular growth inhibition, GNP15. The format is cell-based. As to conditions: 72 hours, triplicate; read-out: IC50 (nM, Cellular growth inhibition) GNP15 (supplement). As to the method: ^b IC50 values were determined using the same resazurin-based assay, with fluorescence measurements performed after 72 hours of treatment. These experiments were carried out in triplicate.

Experiment [8] relates to OHMF (non‐tumoral oral fibroblast). Put plainly: Resazurin cell viability assay, OHMF fibroblasts. As to conditions: Homo sapiens, 72 h, n = 3. Format: cell-based. The method, then:
The tongue squamous cell carcinoma cell line CAL‐27 (ATCC CRL‐2095), breast carcinoma BT‐20 (ATCC HTB‐19), gastric carcinoma HGC‐27 (BCRJ Code 0310), and normal oral fibroblast OHMF (culture of fibroblasts derived from human oral healthy mucosa, approved by the Research Ethics Committee of the University of São Paulo, Campus of Ribeirão Preto, Brazil (with protocol number 049) were cultured in DMEM medium (DMEM, Sigma‐Aldrich, St. Louis, MO, USA) supplemented with 10% fetal bovine serum and a solution of penicillin (100 U/mL) and streptomycin (100 μg/mL). The cultures were maintained in a humidified incubator with 5% CO₂ at 37°C.
Cell viability was analyzed using the resazurin assay. For this, cells were seeded in 96‐well plates (1 × 10^3 cells per well) and incubated at 37°C with 5% CO₂ overnight for cell adhesion. Subsequently, the cells were treated with different compounds (0–50 µM) for 72 h. After treatment, the medium was replaced with phenol‐free DMEM medium (Sigma‐Aldrich) containing resazurin at a concentration of 44 µM (Sigma‐Aldrich). After incubation for 4 h at 37°C, fluorescence detection was performed (excitation 530/25 nm, emission 590/35 nm) using a microplate fluorimeter (Synergy 2, Biotek). Initial cell growth inhibition assays were performed in triplicate or quadruplicate, while IC50 determinations were conducted in triplicate. Data were plotted, and IC₅₀ values were determined by nonlinear regression using GraphPad Prism software 9.0.

In experiment [9] the test system is tubulin. Put plainly: Tubulin polymerization (inhibition) assay kit. Format: biochemical. The settings on record: for IC50: n = 2. As to the method:
To evaluate the effect of the compounds on tubulin polymerization, the Tubulin Polymerization Assay Kit (Cytoskeleton Inc.) was used according to the manufacturer's instructions. Briefly, 5 µL of the compounds (final concentration ranging from 0.1 to 100 µM) were pipetted per well into a pre‐warmed 96‐well black‐bottom plate at 37°C. After 1 min, 55 µL of the tubulin reaction mix (1X Buffer 1, 0.7X Tubulin Glycerol Buffer, 1 mM GTP, and 2 mg/mL tubulin) was added to each well. Next, after 5 s of shaking, fluorescence detection (excitation: 340–360 nm, emission: 410–460 nm) was performed using a microplate fluorimeter. […] Data were plotted, and IC₅₀ values were determined by nonlinear regression using GraphPad Prism software 9.0.
^c Tubulin polymerization was evaluated using a commercial assay kit, following standard procedures. Compounds were incubated with tubulin, and fluorescence was measured over time to generate kinetic curves and determine the maximum polymerization rate (Vmax). These experiments were carried out in duplicate.

Experiment [10] concerns tubulin. Further details: method as in PMID 37895970. The settings on record: read-out: IC50 for tubulin destabilization (literature); cited from earlier work.
[11] abbreviates: 72 h, mean ± SD, n = 3, read-out: IC50 (nM) BT‐20.
Where [12] appears, read: 72 hours, triplicate, read-out: IC50 (nM, Cellular growth inhibition) BT-20 (supplement).
[13] abbreviates: 72 h, mean ± SD, n = 3, read-out: IC50 (nM) HGC‐27.
Setting [14] is: 72 hours, triplicate, read-out: IC50 (nM, Cellular growth inhibition) HGC-27 (supplement).
The mark [15] stands for this setting: 72 h, mean ± SD, n = 3, read-out: IC50 (nM) CAL‐27.
Where [16] appears, read: 72 hours, triplicate, read-out: IC50 (nM, Cellular growth inhibition) CAL-27 (supplement).

Consider `COc1ccc2c(C(=O)c3cc(OC)c(OC)c(OC)c3)c[nH]c2c1` [BPR0L075, reference compound], for which the IC50 in experiment [1] (setting [11]) was determined as 4 ± 1.1 nM; in [1] (setting [12]) it was 3 ± 0.6 nM; in experiment [2] (setting [13]), 5 ± 1.4 nM; in [2] (setting [14]), 45 ± 7 nM; in [3] (setting [15]), 2 ± 0.1 nM; in experiment [3] (setting [16]), 48 ± 16 nM. Further, the “fold improvement in antiproliferative activity over combretastatin A‐4” value in experiment [4] (MKN‐45 cells) was more than 10 fold. The “growth inhibitory activity against NUGC3” value in [5] is “demonstrated growth inhibitory activity”.

In the case of `COc1ccc(/C=C\c2cc(OC)c(OC)c(OC)c2)cc1O` [Combretastatin A-4, combretastatin A‐4], in [5], the “growth inhibitory activity against NUGC3” value is listed as “no appreciable effect”.

Take `COc1ccc2c(C(=O)c3cc(OC)c(OC)c(OC)c3)ccn2c1` [Compound 7f, (6‐methoxyindolizin‐1‐yl)(3,4,5‐trimethoxyphenyl)methanone]: the inhibition at 50 µM in experiment [1] (72 h, mean ± SD, n = 3, read-out: % Cellular growth inhibition (at 50 µM) BT‐20) came to 43 ± 0.8%; in experiment [2] (72 h, mean ± SD, n = 3, read-out: % Cellular growth inhibition (at 50 µM) HGC‐27) it was 43 ± 0.7%; in experiment [3] (72 h, mean ± SD, n = 3, read-out: % Cellular growth inhibition (at 50 µM) CAL‐27) it was 58 ± 1.3%. The IC50 in experiment [1] (setting [11]) was 111 ± 28 nM; in [1] (setting [12]) it was 105 ± 21 nM; in experiment [2] (setting [13]), 475 ± 105 nM; in [2] (setting [14]) it was 111 ± 28 nM; in experiment [7] it was more than 50000 nM; in experiment [3] (setting [15]) it was 105 ± 21 nM. Also, the IC50 in experiment [3] (setting [16]) is 475 ± 105 nM; in experiment [4] (MKN‐45 gastric cancer cells), 80 nM; in experiment [8], more than 50000 nM; in experiment [9] it was 14.8 µM. Moreover, the “cell‐cycle distribution” value in experiment [6] is on record as “significant accumulation of cells in the G2/M phase”.

In the case of `CC(=O)O[C@H]1C(=O)[C@@]2(C)[C@H]([C@H](OC(=O)c3ccccc3)[C@]3(O)C[C@H](OC(=O)[C@H](O)[C@@H](NC(=O)c4ccccc4)c4ccccc4)C(C)=C1C3(C)C)[C@]1(OC(C)=O)CO[C@@H]1C[C@@H]2O` [Paclitaxel, reference compound], the inhibition at 2 µM came to 50 ± 1% in experiment [1] (2 μM, 72 h, mean ± SD, read-out: % Cellular growth inhibition BT‐20, positive control); 46 ± 1.8% in [2] (2 μM, 72 h, mean ± SD, read-out: % Cellular growth inhibition HGC‐27, positive control); 54 ± 1.2% in experiment [3] (2 μM, 72 h, mean ± SD, read-out: % Cellular growth inhibition CAL‐27, positive control). Also, the inhibition at 50 µM in experiment [1] (72 hours, triplicate, read-out: % Cellular growth inhibition (at 50 µM) BT-20 (supplement)) was 50 ± 1%; in experiment [2] (72 hours, triplicate, read-out: % Cellular growth inhibition (at 50 µM) HGC-27 (supplement)), 46 ± 1.8%; in experiment [3] (72 hours, triplicate, read-out: % Cellular growth inhibition (at 50 µM) CAL-27 (supplement)), 54 ± 1.2%. Moreover, the IC50 in [1] (setting [11]) came out at 45 ± 7 nM; in [1] (setting [12]), 2 ± 0.1 nM; in experiment [2] (setting [13]) it was 48 ± 16 nM; in [2] (setting [14]), 4 ± 1.1 nM; in experiment [3] (setting [15]), 3 ± 0.6 nM; in experiment [3] (setting [16]), 5 ± 1.4 nM. In addition, in [9], the IC50 was found to be 8.2 µM. The “effect on tubulin polymerization curves (RFU)” value in experiment [9] (compounds 5 µM, vs control and paclitaxel) was “promoted rapid and sustained polymerization”.

For `COc1ccc(N(C)c2nc(C)nc3ccccc23)cc1` [Verubulin, reference compound], the IC50 is 5 ± 0.7 nM in experiment [1] (setting [11]); 2 ± 0.3 nM in experiment [1] (setting [12]); 3200 ± 700 nM in experiment [10]; 3 ± 0.4 nM in experiment [2] (setting [13]); 5 ± 0.7 nM in experiment [2] (setting [14]); 2 ± 0.3 nM in [3] (setting [15]). Moreover, the IC50 is 3 ± 0.4 nM in [3] (setting [16]) and 3.2 µM in experiment [9].

One may read the IC50 as the concentration that inhibits the measured activity by half. For orientation: inhibition means the relative decrease from the control value, in per cent.

Values taken from publication PMC12673918, “Design, Synthesis, and Selective Antiproliferative Activity of Indolizine Derivatives as Microtubule Destabilizers” (Archiv Der Pharmazie, 2025).
